Reference: ChEMBL document CHEMBL1201862, “PubChem BioAssay data set” (2004)
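96-well plates; 48 h exposure; 5 concentrations. Endpoints by linear interpolation between flanking doses. Not reached: highest tested concentration assigned. GI50 = concentration required for 50% inhibition of growth.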 Activity calls are given as the source filed them. Cut-off read from the data, not from the text of the source: active = GI50 up to about 1.1 µM and inactive = higher.

Columns and labels:
Experiment in all cases: inhibition of tumour cell growth, NCI panel, 48 h
786-0 = system: 786-0
A498 = system: A498
A549 = system: A549
ACHN = system: ACHN
BT-549 = system: BT-549
CAKI-1 = system: CAKI-1
CCRF-CEM = system: CCRF-CEM
COLO 205 = system: COLO 205
DU-145 = system: DU-145
EKVX = system: EKVX
HCT-116 = system: HCT-116
HCT-15 = system: HCT-15
HL-60 = system: HL-60
HOP-62 = system: HOP-62
HOP-92 = system: HOP-92
HT-29 = system: HT-29
Hs-578T = system: Hs-578T
IGROV-1 = system: IGROV-1
K562 = system: K562
KM12 = system: KM12
LOX IMVI = system: LOX IMVI
M14 = system: M14
MCF7 = system: MCF7
MDA-MB-231 = system: MDA-MB-231
MDA-MB-435 = system: MDA-MB-435
MDA-N = system: MDA-N
MOLT-4 = system: MOLT-4
Malme-3M = system: Malme-3M
NCI-H226 = system: NCI-H226
NCI-H23 = system: NCI-H23
NCI-H460 = system: NCI-H460
NCI-H522 = system: NCI-H522
NCI/ADR-RES = system: NCI/ADR-RES
OVCAR-3 = system: OVCAR-3
OVCAR-4 = system: OVCAR-4
OVCAR-5 = system: OVCAR-5
OVCAR-8 = system: OVCAR-8
PC-3 = system: PC-3
RPMI-8226 = system: RPMI-8226
RXF 393 = system: RXF 393
SF-268 = system: SF-268
SF-295 = system: SF-295
SK-MEL-28 = system: SK-MEL-28
SK-MEL-2 = system: SK-MEL-2
SK-MEL-5 = system: SK-MEL-5
SK-OV-3 = system: SK-OV-3
SN12C = system: SN12C
SNB-19 = system: SNB-19
SNB-75 = system: SNB-75
SR = system: SR
SW-620 = system: SW-620
T47D = system: T47D
TK-10 = system: TK-10
U-251 = system: U-251
UACC-257 = system: UACC-257
UACC-62 = system: UACC-62
UO-31 = system: UO-31
SF-539 = system: SF-539

Nc1cccc(OCc2nc(N)nc(N)c2-c2ccc(Cl)cc2)c1
GI50 (786-0): 53.5 µM (inactive) | GI50 (A498): 39.4 µM (inactive) | GI50 (A549): 35.8 µM (inactive) | GI50 (ACHN): 44.3 µM (inactive) | GI50 (BT-549): 36.1 µM (inactive) | GI50 (CAKI-1): 46.7 µM (inactive) | GI50 (CCRF-CEM): 13.1 µM (inactive) | GI50 (COLO 205): 18.6 µM (inactive) | GI50 (DU-145): 73.1 µM (inactive) | GI50 (EKVX): 52.8 µM (inactive) | GI50 (HCT-116): 44.7 µM (inactive) | GI50 (HCT-15): 39.2 µM | GI50 (HL-60): 23.8 µM (inactive) | GI50 (HOP-62): > 100 µM (inactive) | GI50 (HOP-92): 31.3 µM (inactive) | GI50 (HT-29): 39.4 µM (inactive) | GI50 (Hs-578T): 62.2 µM (inactive) | GI50 (IGROV-1): 37.3 µM (inactive) | GI50 (K562): 23.9 µM (inactive) | GI50 (KM12): 57.3 µM (inactive) | GI50 (LOX IMVI): 52.5 µM (inactive) | GI50 (M14): 60.8 µM (inactive) | GI50 (MCF7): 37.8 µM (inactive) | GI50 (MDA-MB-231): > 100 µM (inactive) | GI50 (MDA-MB-435): 56.4 µM (inactive) | GI50 (MDA-N): 42.1 µM (inactive) | GI50 (MOLT-4): 26.1 µM (inactive) | GI50 (Malme-3M): > 100 µM (inactive) | GI50 (NCI-H226): 12.4 µM (inactive) | GI50 (NCI-H23): 43.2 µM (inactive) | GI50 (NCI-H460): 32.9 µM (inactive) | GI50 (NCI-H522): 57.5 µM (inactive) | GI50 (NCI/ADR-RES): 44 µM (inactive) | GI50 (OVCAR-3): > 100 µM (inactive) | GI50 (OVCAR-4): 49.7 µM (inactive) | GI50 (OVCAR-5): > 100 µM (inactive) | GI50 (OVCAR-8): 43.9 µM (inactive) | GI50 (PC-3): 41.3 µM (inactive) | GI50 (RPMI-8226): 37.8 µM (inactive) | GI50 (RXF 393): 60 µM (inactive) | GI50 (SF-268): 60 µM (inactive) | GI50 (SF-295): 64.1 µM (inactive) | GI50 (SK-MEL-28): 70 µM (inactive) | GI50 (SK-MEL-2): > 100 µM (inactive) | GI50 (SK-MEL-5): 26.9 µM (inactive) | GI50 (SK-OV-3): 89.1 µM (inactive) | GI50 (SN12C): 51.3 µM (inactive) | GI50 (SNB-19): > 100 µM (inactive) | GI50 (SNB-75): 32.2 µM (inactive) | GI50 (SR): 36.7 µM (inactive) | GI50 (SW-620): 50.6 µM (inactive) | GI50 (T47D): 35.8 µM (inactive) | GI50 (TK-10): 31.5 µM (inactive) | GI50 (U-251): 64.9 µM (inactive) | GI50 (UACC-257): 41.1 µM (inactive) | GI50 (UACC-62): 62.2 µM (inactive) | GI50 (UO-31): 36.3 µM (inactive)

NS(=O)(=O)c1cc(C(=O)O)c(O)c2ccccc12
GI50 (786-0): > 100 µM (inactive) | GI50 (A498): > 100 µM (inactive) | GI50 (A549): > 100 µM (inactive) | GI50 (ACHN): > 100 µM (inactive) | GI50 (BT-549): > 100 µM (inactive) | GI50 (CAKI-1): > 100 µM (inactive) | GI50 (CCRF-CEM): > 100 µM (inactive) | GI50 (COLO 205): > 100 µM (inactive) | GI50 (DU-145): > 100 µM (inactive) | GI50 (EKVX): > 100 µM (inactive) | GI50 (HCT-116): > 100 µM (inactive) | GI50 (HCT-15): > 100 µM | GI50 (HL-60): > 100 µM (inactive) | GI50 (HOP-62): > 100 µM (inactive) | GI50 (HOP-92): > 100 µM (inactive) | GI50 (HT-29): > 100 µM (inactive) | GI50 (Hs-578T): 49.7 µM (inactive) | GI50 (IGROV-1): > 100 µM (inactive) | GI50 (K562): > 100 µM (inactive) | GI50 (KM12): > 100 µM (inactive) | GI50 (LOX IMVI): > 100 µM (inactive) | GI50 (M14): > 100 µM (inactive) | GI50 (MCF7): > 100 µM (inactive) | GI50 (MDA-MB-231): > 100 µM (inactive) | GI50 (MDA-MB-435): > 100 µM (inactive) | GI50 (MDA-N): > 100 µM (inactive) | GI50 (MOLT-4): > 100 µM (inactive) | GI50 (Malme-3M): 92 µM (inactive) | GI50 (NCI-H226): > 100 µM (inactive) | GI50 (NCI-H23): > 100 µM (inactive) | GI50 (NCI-H460): > 100 µM (inactive) | GI50 (NCI-H522): > 100 µM (inactive) | GI50 (NCI/ADR-RES): > 100 µM (inactive) | GI50 (OVCAR-3): > 100 µM (inactive) | GI50 (OVCAR-4): > 100 µM (inactive) | GI50 (OVCAR-5): > 100 µM (inactive) | GI50 (OVCAR-8): > 100 µM (inactive) | GI50 (PC-3): > 100 µM (inactive) | GI50 (RPMI-8226): > 100 µM (inactive) | GI50 (RXF 393): > 100 µM (inactive) | GI50 (SF-268): > 100 µM (inactive) | GI50 (SF-295): > 100 µM (inactive) | GI50 (SF-539): > 100 µM (inactive) | GI50 (SK-MEL-28): > 100 µM (inactive) | GI50 (SK-MEL-2): > 100 µM (inactive) | GI50 (SK-MEL-5): > 100 µM (inactive) | GI50 (SK-OV-3): > 100 µM (inactive) | GI50 (SN12C): > 100 µM (inactive) | GI50 (SNB-19): > 100 µM (inactive) | GI50 (SNB-75): 82.6 µM (inactive) | GI50 (SR): > 100 µM (inactive) | GI50 (SW-620): > 100 µM (inactive) | GI50 (T47D): > 100 µM (inactive) | GI50 (TK-10): > 100 µM (inactive) | GI50 (U-251): > 100 µM (inactive) | GI50 (UACC-257): > 100 µM (inactive) | GI50 (UACC-62): > 100 µM (inactive) | GI50 (UO-31): > 100 µM (inactive)
